Results from US10294229B2, “Heteroaryl substituted aminopyridine compounds” (BRISTOL-MYERS SQUIBB COMPANY, priority 2015, dated 2019).

Assays:
[1] = test system: Human whole blood stimulated with a TLR2 agonist (lipoteichoic acid), IL-6 levels; assay: IRAK4 Whole Blood Assay; format: cell-based; conditions: Homo sapiens, lipoteichoic acid 10 μg/mL
How it was run: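 ACD-A-anticoagulated human whole blood was preincubated with compounds for 60 min at 37 °C under 5% CO2. It was then stimulated with 10 μg/mL lipoteichoic acid (final) in RPMI for 5 h. IL-6 in plasma supernatants was measured by flow cytometry bead assay.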

[2] = Caco-2 Permeability Assay; format: in vitro ADME; conditions: human, Caco-2, test compound 3 μM
Experimental: Caco-2 Permeability Assay
Thirteen to 27 days prior to assay, Caco-2 cells were seeded onto collagen-coated polycarbonate filter membranes in 24-well transwell plates at a density of 1.45×10^5 cells/cm^2, approximately 4.8×10^4 cells per well. The cells were grown in a culture medium consisting of DMEM supplemented with 10% fetal bovine serum, 10 mM HEPES, 1% nonessential amino acids, 2 mM L-glutamine, 100 U/mL penicillin-G, and 100 μg/mL streptomycin. The culture medium was replaced every 3 days and the cells were maintained at 37° C. in a 95% relative humidity and 5% CO2 atmosphere. The cells were evaluated for tight junction formation just prior to assay. The test compound was solubilized to 10 mM in 100% DMSO and diluted to 3 μM in assay buffer. Permeability studies were initiated by adding 200 μL assay buffer plus/minus compound to the apical transwell compartment and 600 μL assay buffer plus/minus compound to the basolateral compartment of the 24-well transwell low-binding cluster plate. For apical-to-basolateral (A to B) permeability (absorptive direction), buffer containing compound was placed in the apical compartment (donor wells), while buffer alone was placed in the corresponding basolateral compartments (receiver wells). For basolateral-to-apical (B to A) permeability (secretive direction), buffer containing compound was placed in the basolateral compartment (donor wells), while buffer alone was placed in the corresponding apical compartments (receiver wells). Transwells were then incubated for 2 hours at 37° C. in a 95% relative humidity and 5% CO2 atmosphere with gentle agitation. Following incubation, 100 μL was removed from each apical and basolateral compartment and transferred to 96-well low binding plates that had been previously loaded with 100 μL/well of acetonitrile containing 250 nM propranolol, 250 nM diclofenac, and 500 nM tolbutamide as internal standards. The samples were subsequently analyzed by LC-MS/MS to determine concentrations of compound.

IRAK4 = IRAK4 (Homo sapiens (Human), UniProt Q9NWZ3); assay: IRAK4 Inhibition Assay; format: biochemical; conditions: ATP 500 μM; IRAK4 0.6 nM
Chain of IRAK4 (Q9NWZ3 whole entry, species assumed): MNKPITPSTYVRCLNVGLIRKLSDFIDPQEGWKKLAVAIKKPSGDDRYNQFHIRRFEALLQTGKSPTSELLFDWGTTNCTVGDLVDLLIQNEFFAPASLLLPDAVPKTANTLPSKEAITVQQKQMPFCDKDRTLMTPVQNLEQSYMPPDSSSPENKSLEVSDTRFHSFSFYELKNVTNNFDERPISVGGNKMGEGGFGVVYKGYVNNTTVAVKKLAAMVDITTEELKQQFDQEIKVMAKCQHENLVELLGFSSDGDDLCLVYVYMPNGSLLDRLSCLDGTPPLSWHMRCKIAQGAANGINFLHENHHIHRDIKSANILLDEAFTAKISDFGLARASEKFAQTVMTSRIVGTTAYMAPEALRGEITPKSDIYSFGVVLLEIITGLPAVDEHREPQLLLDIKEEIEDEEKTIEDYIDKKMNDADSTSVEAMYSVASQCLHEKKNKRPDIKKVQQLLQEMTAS
How it was run: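 Mobility-shift readout: phosphorylated and unphosphorylated fluorescent peptide (1.5 μM) resolved by electrophoresis after a 60 min room-temperature reaction stopped with EDTA. Reaction holds 0.6 nM IRAK4, 500 μM ATP and 1.6% DMSO in HEPES pH 7.2/MgCl2/Brij 35/DTT buffer; percent inhibition set against vehicle and no-enzyme controls.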

| EC50 [1] | Papp at 2 h, 3 µM [2] | IC50 (IRAK4) | SMILES |
| --- | --- | --- | --- |
| 850 nM | 14 ×10⁻⁶ cm/s | 5 nM | CC(C)Nc1cc(-n2ncc3cc(C#N)cnc32)ncc1-c1cn(CC2CC2)nn1 [Example 16, 1-(5-(1-(cyclopropylmethyl)-1H-1,2,3-triazol-4-yl)-4-(isopropylamino)pyridin-2-yl)-1H-pyrazolo[3,4-b]pyridine-5-carbonitrile] |
| 320 nM | 4.2 ×10⁻⁶ cm/s | 4 nM | CC(C)Nc1cc(-n2ncc3cc(C#N)cnc32)ncc1-c1cn(C2CCN(C)C2=O)nn1 (stereo not drawn) [Example 21, 1-(4-(isopropylamino)-5-(1-(1-methyl-2-oxopyrrolidin-3-yl)-1H-1,2,3-triazol-4-yl)pyridin-2-yl)-1H-pyrazolo[3,4-b]pyridine-5-carbonitrile] |
| 800 nM | 4.9 ×10⁻⁶ cm/s | 2 nM | CC(C)Nc1cc(-n2ncc3cc(C#N)c(N)nc32)ncc1-c1cn(C2CCCCC2)nn1 [Example 25, 6-amino-1-(5-(1-cyclohexyl-1H-1,2,3-triazol-4-yl)-4-(isopropylamino)pyridin-2-yl)-1H-pyrazolo[3,4-b]pyridine-5-carbonitrile] |
| 380 nM | < 1.5 ×10⁻⁶ cm/s | 4 nM | CC(C)Nc1cc(-n2ncc3cc(C#N)c(N)nc32)ncc1-c1cn(CCCO)nn1 [Example 29, 6-amino-1-(5-(1-(3-hydroxypropyl)-1H-1,2,3-triazol-4-yl)-4-(isopropylamino)pyridin-2-yl)-1H-pyrazolo[3,4-b]pyridine-5-carbonitrile] |
| 160 nM | 22.5 ×10⁻⁶ cm/s | 4 nM | CCCn1cc(-c2cnc(-n3ncc4cc(C#N)cnc43)cc2NC(C)C)nn1 [Example 30, 1-(4-(isopropylamino)-5-(1-propyl-1H-1,2,3-triazol-4-yl)pyridin-2-yl)-1H-pyrazolo[3,4-b]pyridine-5-carbonitrile] |
| 3720 nM | 16.7 ×10⁻⁶ cm/s | 3 nM | CCCn1cc(-c2cnc(-n3ncc4cc(C#N)c(N)nc43)cc2NC(C)C)nn1 [Example 33, 6-amino-1-(4-(isopropylamino)-5-(1-propyl-1H-1,2,3-triazol-4-yl)pyridin-2-yl)-1H-pyrazolo[3,4-b]pyridine-5-carbonitrile] |
| 660 nM | 48.1 ×10⁻⁶ cm/s | 4 nM | CCCn1cc(-c2cnc(-n3ncc4cc(C#N)cnc43)cc2NC2CC2)nn1 [Example 34, 1-(4-(cyclopropylamino)-5-(1-propyl-1H-1,2,3-triazol-4-yl)pyridin-2-yl)-1H-pyrazolo[3,4-b]pyridine-5-carbonitrile] |
| 460 nM | 23.7 ×10⁻⁶ cm/s | 3 nM | CCCn1cc(-c2cnc(-n3ncc4cc(C#N)c(N)nc43)cc2NC2CC2)nn1 [Example 35, 6-amino-1-(4-(cyclopropylamino)-5-(1-propyl-1H-1,2,3-triazol-4-yl)pyridin-2-yl)-1H-pyrazolo [3,4-b]pyridine-5-carbonitrile] |
| 160 nM | 33.9 ×10⁻⁶ cm/s | 5 nM | CCn1cc(-c2cnc(-n3ncc4cc(C#N)cnc43)cc2NC(C)C)nn1 [Example 37, 1-(5-(1-ethyl-1H-1,2,3-triazol-4-yl)-4-(isopropylamino)pyridin-2-yl)-1H-pyrazolo[3,4-b]pyridine-5-carbonitrile] |
| 320 nM | 27.8 ×10⁻⁶ cm/s | 4 nM | CC(C)Nc1cc(-n2ncc3cc(C#N)cnc32)ncc1-c1cn(CCC(F)(F)F)nn1 [Example 41, 1-(4-(isopropylamino)-5-(1-(3,3,3-trifluoropropyl)-1H-1,2,3-triazol-4-yl)pyridin-2-yl)-1H-pyrazolo[3,4-b]pyridine-5-carbonitrile] |
| 920 nM | 30 ×10⁻⁶ cm/s | 4 nM | CC(C)Nc1cc(-n2ncc3cc(C#N)cnc32)ncc1-c1cn(CCCCF)nn1 [Example 48, 1-(5-(1-(4-fluorobutyl)-1H-1,2,3-triazol-4-yl)-4-(isopropylamino)pyridin-2-yl)-1H-pyrazolo[3,4-b]pyridine-5-carbonitrile] |
| 580 nM | 28.8 ×10⁻⁶ cm/s | 4 nM | CCCn1cc(-c2cnc(-n3ncc4cc(C#N)cnc43)cc2NC2CCOCC2)nn1 [Example 49, 1-(5-(1-propyl-1H-1,2,3-triazol-4-yl)-4-((tetrahydro-2H-pyran-4-yl)amino)pyridin-2-yl)-1H-pyrazolo[3,4-b]pyridine-5-carbonitrile] |
| 430 nM | 3.4 ×10⁻⁶ cm/s | 3 nM | CCCn1cc(-c2cnc(-n3ncc4cc(C#N)cnc43)cc2N[C@@H](C)CO)nn1 [Example 52, (S)-1-(4-((1-hydroxypropan-2-yl)amino)-5-(1-propyl-1H-1,2,3-triazol-4-yl)pyridin-2-yl)-1H-pyrazolo[3,4-b]pyridine-5-carbonitrile] |
| 100 nM | 26.7 ×10⁻⁶ cm/s | 2 nM | CCCn1cc(-c2cnc(-n3cnc4cc(C#N)cnc43)cc2N[C@@H](C)CO)nn1 [Example 53, (S)-3-(4-((1-hydroxypropan-2-yl)amino)-5-(1-propyl-1H-1,2,3-triazol-4-yl)pyridin-2-yl)-3H-imidazo [4,5-b]pyridine-6-carbonitrile] |
| 1180 nM | 40.8 ×10⁻⁶ cm/s | 9 nM | CCCn1cc(-c2cnc(-n3ncc4cc(C#N)cnc43)cc2NCC)nn1 [Example 54, 1-(4-(ethylamino)-5-(1-propyl-1H-1,2,3-triazol-4-yl)pyridin-2-yl)-1H-pyrazolo[3,4-b]pyridine-5-carbonitrile] |
| 180 nM | 7.2 ×10⁻⁶ cm/s | 3 nM | CC(C)Nc1cc(-n2ncc3cc(C#N)cnc32)ncc1-c1cn(CCc2ccccc2)nn1 [Example 56, 1-(4-(isopropylamino)-5-(1-phenethyl-1H-1,2,3-triazol-4-yl)pyridin-2-yl)-1H-pyrazolo [3,4-b]pyridine-5-carbonitrile] |
| 250 nM | 11.9 ×10⁻⁶ cm/s | 2 nM | CCCn1cc(-c2cnc(-n3ncc4cc(C#N)cnc43)cc2Nc2cnn(CC(F)F)c2)nn1 [Example 60, 1-(4-((1-(2,2-difluoroethyl)-1H-pyrazol-4-yl)amino)-5-(1-propyl-1H-1,2,3-triazol-4-yl)pyridin-2-yl)-1H-pyrazolo[3,4-b]pyridine-5-carbonitrile] |
| 140 nM | 32.1 ×10⁻⁶ cm/s | 4 nM | CCCn1cc(-c2cnc(-n3cnc4cnc(N)nc43)cc2NC(C)C)nn1 [Example 62, 9-(4-(isopropylamino)-5-(1-propyl-1H-1,2,3-triazol-4-yl)pyridin-2-yl)-9H-purin-2-amine] |
| 900 nM | 7.8 ×10⁻⁶ cm/s | 14 nM | CC(C)Nc1cc(-n2ncc3cc(C#N)cnc32)ncc1-c1cn(CC(C)(C)O)nn1 [Example 63, 1-(5-(1-(2-hydroxy-2-methylpropyl)-1H-1,2,3-triazol-4-yl)-4-(isopropylamino)pyridin-2-yl)-1H-pyrazolo[3,4-b]pyridine-5-carbonitrile] |
| 310 nM | 6.9 ×10⁻⁶ cm/s | 5 nM | CC(C)Nc1cc(-n2ncc3cc(C#N)cnc32)ncc1-c1cn(C[C@H](O)c2ccccc2)nn1 [Example 85, (R)-1-(5-(1-(2-hydroxy-2-phenylethyl)-1H-1,2,3-triazol-4-yl)-4-(isopropylamino)pyridin-2-yl)-1H-pyrazolo[3,4-b]pyridine-5-carbonitrile] |
| 1440 nM | < 1.5 ×10⁻⁶ cm/s | 8 nM | CC(C)Nc1cc(-n2ncc3cc(C#N)c(N)nc32)ncc1-c1cn(CC(C)(C)O)nn1 [Example 97, 6-amino-1-(5-(1-(2-hydroxy-2-methylpropyl)-1H-1,2,3-triazol-4-yl)-4-(isopropylamino)pyridin-2-yl)-1H-pyrazolo[3,4-b]pyridine-5-carbonitrile] |
| 1110 nM | < 1.5 ×10⁻⁶ cm/s | 4 nM | Cc1n[nH]c(C)c1CCn1cc(-c2cnc(-n3ncc4cc(C#N)cnc43)cc2NC(C)C)nn1 [Example 102, 1-(5-(1-(2-(3,5-dimethyl-1H-pyrazol-4-yl)ethyl)-1H-1,2,3-triazol-4-yl)-4-(isopropylamino)pyridin-2-yl)-1H-pyrazolo[3,4-b]pyridine-5-carbonitrile] |
| 1190 nM | 10.1 ×10⁻⁶ cm/s | 4 nM | CC(C)Nc1cc(-n2ncc3cc(C#N)cnc32)ncc1-c1cn(CC2CCC2)nn1 [Example 117, 1-(5-(1-(cyclobutylmethyl)-1H-1,2,3-triazol-4-yl)-4-(isopropylamino)pyridin-2-yl)-1H-pyrazolo[3,4-b]pyridine-5-carbonitrile] |
